{"source": "patent US20260265239A1", "about": "“CRYSTAL FORM OF 2,6-PIPERIDINEDIONE COMPOUND, AND PREPARATION METHOD THEREFOR AND USE THEREOF” (ZHANGZHOU PIEN TZE HUANG PHARMACEUTICAL CO., LTD., priority 2023, published 2026)", "assay": "Pharmacokinetic evaluation in beagle dogs", "format": "in vivo", "excerpt": "Male beagle dogs were selected as the experimental animals in this study. The LC/MS/MS method was employed to quantitatively determine the plasma drug concentrations at different time points after intravenous injection or intragastric administration of the test compound, aiming to evaluate the pharmacokinetic characteristics of the compound of the present disclosure in beagle dogs.\nBeagle dogs (male, 7 to 10 kg, Beijing Mars Biotechnology Co., Ltd.).\nA solution of the test compound was slowly injected intravenously into beagle dogs (fed) via the peripheral vein (vehicle: 5% DMSO/10% Solutol/85% H2O), or administered intragastrically to beagle dogs (fed). For intravenous administration, 0.5 mL of blood was collected from the peripheral vein at 0.083, 0.25, 0.5, 1, 2, 4, 6, 8, and 24 h after administration, placed in EDTA-2K anticoagulant tubes, and centrifuged at 3200 g for 10 minutes at 2 to 8° C. to separate the supernatant. For intragastric administration, 0.5 mL of blood was collected from the peripheral vein at 0.083, 0.25, 0.5, 1, 2, 4, 6, 8, and 24 h after administration, placed in EDTA-2K anticoagulant tubes, and centrifuged at 3200 g for 10 minutes at 2 to 8° C. to separate the supernatant. Plasma drug concentrations were determined by the LC-MS/MS method, and relevant pharmacokinetic parameters were calculated using Phoenix WinNonlin 6.3 or 8.3.5 pharmacokinetic software with non-compartmental model linear-log trapezoidal method.", "key": {"[1]": {"details": "Intragastric administration, 5 mg/kg"}, "[2]": {"details": "Intragastric administration, 15 mg/kg"}, "[3]": {"details": "Intravenous Injection (0.5 mg/kg)"}}, "note": "Where a name gives a salt, the structure may show the parent alone."}
{"molecule": "O=C1CCC(c2noc3ccc4c(NC(=O)CN5CCN(C[C@H]6CC[C@H](n7cc(NC(=O)c8coc(-c9ccnc(NCC%10CC%10)c9)n8)c(C(F)F)n7)CC6)CC5)cccc4c23)C(=O)N1", "note": "(some centres unmarked) [Hydrochloride of Compound of Formula (I)]", "values": [{"measurement": "Area Under the Drug-Time Curve (0-inf)", "setting": "[1]", "result": 3.20, "unit": "µM·h"}, {"measurement": "Peak Concentration", "setting": "[1]", "result": 0.41, "unit": "µM"}, {"measurement": "Time to Peak Concentration", "setting": "[1]", "result": 4.00, "unit": "h"}, {"measurement": "Area Under the Drug-Time Curve (0-inf)", "setting": "[2]", "result": 8.02, "unit": "µM·h"}, {"measurement": "Peak Concentration", "setting": "[2]", "result": 0.87, "unit": "µM"}, {"measurement": "Time to Peak Concentration", "setting": "[2]", "result": 4.00, "unit": "h"}, {"measurement": "Apparent Distribution Volume", "setting": "[3]", "result": 5.83, "unit": "L/kg"}, {"measurement": "Area Under the Drug-Time Curve (0-inf)", "setting": "[3]", "result": 0.44, "unit": "µM·h"}]}
